Experiments:
[1] = system: Tyrosine-protein kinase ABL1 (Homo sapiens), P00519 [E255K]; details: Compound concentration 1000.0 nM
[2] = target: 5'-AMP-activated protein kinase catalytic subunit alpha-2 (Homo sapiens) (UniProt P54646); details: Compound concentration 1000.0 nM
[3] = target: NUAK family SNF1-like kinase 1 (Homo sapiens) (UniProt O60285); details: Compound concentration 1000.0 nM
[4] = target: Serine/threonine-protein kinase B-raf (Homo sapiens) (UniProt P15056); details: Compound concentration 1000.0 nM
[5] = target: Calcium/calmodulin-dependent protein kinase type II subunit beta (Homo sapiens) (UniProt Q13554); details: Compound concentration 1000.0 nM
[6] = target: Death-associated protein kinase 2 (Homo sapiens) (UniProt Q9UIK4); details: Compound concentration 1000.0 nM
[7] = system: Epidermal growth factor receptor (Homo sapiens), P00533 [UNDEFINED MUTATION]; details: Compound concentration 1000.0 nM
[8] = system: Epidermal growth factor receptor (Homo sapiens), P00533 [L858R,T790M]; details: Compound concentration 1000.0 nM
[9] = target: Ephrin type-B receptor 1 (Homo sapiens) (UniProt P54762); details: Compound concentration 1000.0 nM
[10] = target: Receptor tyrosine-protein kinase erbB-4 (Homo sapiens) (UniProt Q15303); details: Compound concentration 1000.0 nM
[11] = target: Tyrosine-protein kinase Fes/Fps (Homo sapiens) (UniProt P07332); details: Compound concentration 1000.0 nM
[12] = system: Receptor-type tyrosine-protein kinase FLT3 (Homo sapiens), P36888 [UNDEFINED MUTATION]; details: Compound concentration 1000.0 nM
[13] = target: Rhodopsin kinase GRK1 (Homo sapiens) (UniProt Q15835); details: Compound concentration 1000.0 nM
[14] = target: Glycogen synthase kinase-3 alpha (Homo sapiens) (UniProt P49840); details: Compound concentration 1000.0 nM
[15] = target: Tyrosine-protein kinase JAK1 (Homo sapiens) (UniProt P23458); details: Compound concentration 1000.0 nM
[16] = target: Mast/stem cell growth factor receptor Kit (Homo sapiens) (UniProt P10721); details: Compound concentration 1000.0 nM
[17] = target: Tyrosine-protein kinase Lck (Homo sapiens) (UniProt P06239); details: Compound concentration 1000.0 nM
[18] = target: Mitogen-activated protein kinase kinase kinase 2 (Homo sapiens) (UniProt Q9Y2U5); details: Compound concentration 1000.0 nM
[19] = target: MAP/microtubule affinity-regulating kinase 3 (Homo sapiens) (UniProt P27448); details: Compound concentration 1000.0 nM
[20] = target: Tyrosine-protein kinase Mer (Homo sapiens) (UniProt Q12866); details: Compound concentration 1000.0 nM
[21] = target: Myosin light chain kinase (Homo sapiens) (UniProt Q32MK0); details: Compound concentration 1000.0 nM
[22] = target: Mitogen-activated protein kinase kinase kinase 9 (Homo sapiens) (UniProt P80192); details: Compound concentration 1000.0 nM
[23] = target: Serine/threonine-protein kinase Nek9 (Homo sapiens) (UniProt Q8TD19); details: Compound concentration 1000.0 nM
[24] = target: Cyclin-dependent kinase 18 (Homo sapiens) (UniProt Q07002); details: Compound concentration 1000.0 nM
[25] = target: Cyclin-dependent kinase 14 (Homo sapiens) (UniProt O94921); details: Compound concentration 1000.0 nM
[26] = target: Phosphatidylinositol 3-kinase C2 domain-containing subunit gamma (Homo sapiens) (UniProt O75747); details: Compound concentration 1000.0 nM
[27] = system: Phosphatidylinositol 4,5-bisphosphate 3-kinase catalytic subunit alpha isoform (Homo sapiens), P42336 [Q546K]; details: Compound concentration 1000.0 nM
[28] = target: Serine/threonine-protein kinase PLK2 (Homo sapiens) (UniProt Q9NYY3); details: Compound concentration 1000.0 nM
[29] = target: Protein kinase C theta type (Homo sapiens) (UniProt Q04759); details: Compound concentration 1000.0 nM
[30] = target: Serine/threonine-protein kinase D3 (Homo sapiens) (UniProt O94806); details: Compound concentration 1000.0 nM
[31] = target: SRSF protein kinase 1 (Homo sapiens) (UniProt Q96SB4); details: Compound concentration 1000.0 nM
[32] = target: Serine/threonine-protein kinase TAO1 (Homo sapiens) (UniProt Q7L7X3); details: Compound concentration 1000.0 nM
[33] = target: Serine/threonine-protein kinase TAO2 (Homo sapiens) (UniProt Q9UL54); details: Compound concentration 1000.0 nM
[34] = target: Serine/threonine-protein kinase tousled-like 1 (Homo sapiens) (UniProt Q9UKI8); details: Compound concentration 1000.0 nM
[35] = target: Wee1-like protein kinase 2 (Homo sapiens) (UniProt P0C1S8); details: Compound concentration 1000.0 nM
[36] = target: 5-hydroxytryptamine receptor 2A (Homo sapiens) (UniProt P28223); details: Compound concentration 10.0 uM
[37] = target: 5-hydroxytryptamine receptor 6 (Homo sapiens) (UniProt P50406); details: Compound concentration 10.0 uM
[38] = target: T1, Muscarinic acetylcholine receptor M2 (Homo sapiens) (UniProt P08172); details: Compound concentration 10.0 uM
T1 sequence (whole entry): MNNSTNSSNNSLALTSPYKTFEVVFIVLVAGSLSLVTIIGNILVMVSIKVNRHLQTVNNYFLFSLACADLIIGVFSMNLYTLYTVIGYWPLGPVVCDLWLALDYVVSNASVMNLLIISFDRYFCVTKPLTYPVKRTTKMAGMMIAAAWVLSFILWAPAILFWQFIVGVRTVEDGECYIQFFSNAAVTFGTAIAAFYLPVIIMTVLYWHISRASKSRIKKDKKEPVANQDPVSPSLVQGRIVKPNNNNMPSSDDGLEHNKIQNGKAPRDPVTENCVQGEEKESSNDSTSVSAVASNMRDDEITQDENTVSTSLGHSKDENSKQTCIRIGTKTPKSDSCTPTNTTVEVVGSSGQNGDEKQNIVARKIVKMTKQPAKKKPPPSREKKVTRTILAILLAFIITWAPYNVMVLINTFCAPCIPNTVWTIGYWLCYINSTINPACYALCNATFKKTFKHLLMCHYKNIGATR

[39] = target: Sigma intracellular receptor 2 (Homo sapiens) (UniProt Q5BJF2); details: Compound concentration 10.0 uM
Sigma intracellular receptor 2 (Homo sapiens), sequence (Q5BJF2 whole entry): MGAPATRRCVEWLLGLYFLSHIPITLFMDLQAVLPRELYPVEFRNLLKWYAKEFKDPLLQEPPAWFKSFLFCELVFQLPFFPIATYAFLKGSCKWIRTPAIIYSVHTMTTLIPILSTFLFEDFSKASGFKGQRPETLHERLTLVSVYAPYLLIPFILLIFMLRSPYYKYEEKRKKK

Phosphatidylinositol 3-kinase C2 domain-containing subunit gamma (Homo sapiens), sequence (O75747 whole entry, the tested form may be a part, canonical isoform): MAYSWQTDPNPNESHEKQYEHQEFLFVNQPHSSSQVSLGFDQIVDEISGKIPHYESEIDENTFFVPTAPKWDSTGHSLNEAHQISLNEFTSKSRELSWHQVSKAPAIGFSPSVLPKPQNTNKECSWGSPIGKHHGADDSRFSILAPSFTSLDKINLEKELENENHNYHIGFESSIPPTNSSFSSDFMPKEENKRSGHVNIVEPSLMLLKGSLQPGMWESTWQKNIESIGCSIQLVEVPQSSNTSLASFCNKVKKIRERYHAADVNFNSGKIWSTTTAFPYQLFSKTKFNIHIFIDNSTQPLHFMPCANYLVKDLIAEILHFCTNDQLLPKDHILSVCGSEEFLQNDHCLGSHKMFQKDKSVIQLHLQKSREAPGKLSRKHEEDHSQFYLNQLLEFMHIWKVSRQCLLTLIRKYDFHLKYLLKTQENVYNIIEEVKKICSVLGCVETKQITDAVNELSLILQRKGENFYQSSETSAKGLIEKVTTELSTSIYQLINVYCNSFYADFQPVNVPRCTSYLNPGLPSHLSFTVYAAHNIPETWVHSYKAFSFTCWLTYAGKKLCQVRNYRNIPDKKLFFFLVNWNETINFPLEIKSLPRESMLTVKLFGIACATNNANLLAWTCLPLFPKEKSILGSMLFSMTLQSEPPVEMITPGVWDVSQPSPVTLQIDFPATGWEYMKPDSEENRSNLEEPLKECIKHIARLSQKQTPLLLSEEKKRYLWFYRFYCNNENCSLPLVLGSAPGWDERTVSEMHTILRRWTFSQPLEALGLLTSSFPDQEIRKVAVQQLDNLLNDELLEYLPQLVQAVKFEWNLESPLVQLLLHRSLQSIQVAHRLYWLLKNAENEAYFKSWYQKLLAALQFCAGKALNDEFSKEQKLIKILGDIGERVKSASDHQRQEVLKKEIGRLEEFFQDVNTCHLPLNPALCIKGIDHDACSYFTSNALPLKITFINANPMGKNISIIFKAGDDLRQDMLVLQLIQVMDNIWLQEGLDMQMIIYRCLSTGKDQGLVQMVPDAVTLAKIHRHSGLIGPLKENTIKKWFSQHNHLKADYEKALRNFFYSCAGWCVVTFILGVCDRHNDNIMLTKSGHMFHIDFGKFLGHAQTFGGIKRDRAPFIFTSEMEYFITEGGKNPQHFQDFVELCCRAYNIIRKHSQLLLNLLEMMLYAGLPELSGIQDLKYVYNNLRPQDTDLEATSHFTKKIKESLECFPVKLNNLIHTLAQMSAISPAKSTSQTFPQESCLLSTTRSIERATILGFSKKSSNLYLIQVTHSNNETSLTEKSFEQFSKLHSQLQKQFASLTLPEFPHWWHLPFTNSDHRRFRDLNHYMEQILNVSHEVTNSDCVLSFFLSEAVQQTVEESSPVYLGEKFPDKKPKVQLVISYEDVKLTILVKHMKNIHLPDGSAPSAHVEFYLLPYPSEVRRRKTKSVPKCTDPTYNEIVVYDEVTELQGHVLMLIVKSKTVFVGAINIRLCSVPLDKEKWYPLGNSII
Wee1-like protein kinase 2 (Homo sapiens), sequence (P0C1S8 whole entry, looked up): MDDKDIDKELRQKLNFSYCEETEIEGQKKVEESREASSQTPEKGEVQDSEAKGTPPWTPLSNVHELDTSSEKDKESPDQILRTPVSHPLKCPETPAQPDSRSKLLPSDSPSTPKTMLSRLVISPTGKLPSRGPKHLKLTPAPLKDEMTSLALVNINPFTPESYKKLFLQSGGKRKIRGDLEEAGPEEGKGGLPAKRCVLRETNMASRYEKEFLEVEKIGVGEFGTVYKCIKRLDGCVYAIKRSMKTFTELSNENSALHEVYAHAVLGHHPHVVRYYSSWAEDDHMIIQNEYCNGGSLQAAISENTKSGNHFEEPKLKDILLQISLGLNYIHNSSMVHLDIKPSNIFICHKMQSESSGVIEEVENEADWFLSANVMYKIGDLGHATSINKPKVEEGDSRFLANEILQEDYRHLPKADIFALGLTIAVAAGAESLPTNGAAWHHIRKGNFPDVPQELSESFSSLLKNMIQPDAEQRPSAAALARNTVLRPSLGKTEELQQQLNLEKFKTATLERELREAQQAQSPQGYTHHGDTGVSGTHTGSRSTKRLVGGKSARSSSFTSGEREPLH
Tyrosine-protein kinase Mer (Homo sapiens), sequence (Q12866 whole entry): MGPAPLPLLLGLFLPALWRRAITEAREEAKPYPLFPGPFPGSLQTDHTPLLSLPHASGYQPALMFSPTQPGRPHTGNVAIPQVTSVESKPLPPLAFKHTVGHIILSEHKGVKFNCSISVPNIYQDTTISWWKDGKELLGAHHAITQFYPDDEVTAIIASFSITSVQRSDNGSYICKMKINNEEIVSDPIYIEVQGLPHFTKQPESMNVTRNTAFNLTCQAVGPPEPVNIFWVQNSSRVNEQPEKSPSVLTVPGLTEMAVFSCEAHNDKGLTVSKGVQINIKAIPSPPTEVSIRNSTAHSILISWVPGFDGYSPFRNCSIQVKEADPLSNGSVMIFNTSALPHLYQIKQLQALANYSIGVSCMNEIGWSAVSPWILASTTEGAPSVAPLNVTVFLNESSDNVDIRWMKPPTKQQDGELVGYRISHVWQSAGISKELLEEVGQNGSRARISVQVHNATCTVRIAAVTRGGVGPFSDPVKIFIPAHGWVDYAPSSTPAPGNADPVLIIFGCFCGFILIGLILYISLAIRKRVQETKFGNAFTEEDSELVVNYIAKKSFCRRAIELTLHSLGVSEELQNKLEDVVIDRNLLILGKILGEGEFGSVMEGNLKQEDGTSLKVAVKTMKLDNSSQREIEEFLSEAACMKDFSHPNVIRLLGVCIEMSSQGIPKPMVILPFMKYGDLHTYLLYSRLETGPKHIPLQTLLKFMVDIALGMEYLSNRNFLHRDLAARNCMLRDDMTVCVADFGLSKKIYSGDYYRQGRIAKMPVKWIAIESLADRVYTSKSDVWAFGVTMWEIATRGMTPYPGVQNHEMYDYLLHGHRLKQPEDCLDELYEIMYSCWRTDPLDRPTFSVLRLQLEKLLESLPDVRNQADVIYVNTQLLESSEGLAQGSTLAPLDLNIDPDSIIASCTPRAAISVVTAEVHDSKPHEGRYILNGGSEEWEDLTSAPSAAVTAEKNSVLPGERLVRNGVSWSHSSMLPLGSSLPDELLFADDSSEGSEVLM
Serine/threonine-protein kinase D3 (Homo sapiens), sequence (O94806 whole entry): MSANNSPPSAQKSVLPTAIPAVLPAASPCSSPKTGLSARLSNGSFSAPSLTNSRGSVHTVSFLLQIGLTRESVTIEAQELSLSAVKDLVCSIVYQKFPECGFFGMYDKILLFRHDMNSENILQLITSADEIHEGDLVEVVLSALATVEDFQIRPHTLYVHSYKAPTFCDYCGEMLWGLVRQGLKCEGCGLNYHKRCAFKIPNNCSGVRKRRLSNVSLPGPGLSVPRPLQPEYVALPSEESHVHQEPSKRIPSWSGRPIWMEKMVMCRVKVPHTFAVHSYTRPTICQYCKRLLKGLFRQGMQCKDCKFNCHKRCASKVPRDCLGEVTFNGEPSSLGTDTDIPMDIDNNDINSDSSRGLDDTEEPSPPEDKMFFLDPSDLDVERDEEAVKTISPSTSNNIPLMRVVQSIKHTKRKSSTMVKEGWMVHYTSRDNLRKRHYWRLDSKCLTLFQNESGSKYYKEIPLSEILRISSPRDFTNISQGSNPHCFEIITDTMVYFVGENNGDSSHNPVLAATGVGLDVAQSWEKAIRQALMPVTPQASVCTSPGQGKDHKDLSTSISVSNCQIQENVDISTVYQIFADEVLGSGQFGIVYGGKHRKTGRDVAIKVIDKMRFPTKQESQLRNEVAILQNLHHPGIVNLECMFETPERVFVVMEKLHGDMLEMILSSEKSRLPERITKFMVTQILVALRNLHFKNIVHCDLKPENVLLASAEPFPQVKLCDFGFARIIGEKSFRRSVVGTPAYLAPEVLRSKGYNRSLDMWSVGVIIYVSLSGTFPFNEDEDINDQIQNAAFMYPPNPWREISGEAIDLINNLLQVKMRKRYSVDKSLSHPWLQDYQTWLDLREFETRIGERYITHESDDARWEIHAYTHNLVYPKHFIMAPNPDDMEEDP
5'-AMP-activated protein kinase catalytic subunit alpha-2 (Homo sapiens), sequence (P54646 whole entry, looked up): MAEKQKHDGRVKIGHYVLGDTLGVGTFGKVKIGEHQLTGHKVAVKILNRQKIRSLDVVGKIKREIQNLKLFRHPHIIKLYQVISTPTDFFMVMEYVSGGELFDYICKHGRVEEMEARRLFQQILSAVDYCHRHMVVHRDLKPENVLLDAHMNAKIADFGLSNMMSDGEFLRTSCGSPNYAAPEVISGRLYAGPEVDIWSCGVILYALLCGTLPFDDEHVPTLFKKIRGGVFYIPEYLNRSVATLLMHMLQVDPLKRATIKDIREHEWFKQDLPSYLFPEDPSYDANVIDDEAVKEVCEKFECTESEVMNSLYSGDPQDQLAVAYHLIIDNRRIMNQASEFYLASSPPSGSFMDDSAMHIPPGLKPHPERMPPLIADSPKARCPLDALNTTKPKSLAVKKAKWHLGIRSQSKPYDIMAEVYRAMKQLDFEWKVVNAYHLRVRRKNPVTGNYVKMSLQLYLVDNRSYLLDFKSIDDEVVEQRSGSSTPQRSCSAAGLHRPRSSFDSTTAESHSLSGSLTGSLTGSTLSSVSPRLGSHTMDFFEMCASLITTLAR
Death-associated protein kinase 2 (Homo sapiens), sequence (Q9UIK4 whole entry, looked up): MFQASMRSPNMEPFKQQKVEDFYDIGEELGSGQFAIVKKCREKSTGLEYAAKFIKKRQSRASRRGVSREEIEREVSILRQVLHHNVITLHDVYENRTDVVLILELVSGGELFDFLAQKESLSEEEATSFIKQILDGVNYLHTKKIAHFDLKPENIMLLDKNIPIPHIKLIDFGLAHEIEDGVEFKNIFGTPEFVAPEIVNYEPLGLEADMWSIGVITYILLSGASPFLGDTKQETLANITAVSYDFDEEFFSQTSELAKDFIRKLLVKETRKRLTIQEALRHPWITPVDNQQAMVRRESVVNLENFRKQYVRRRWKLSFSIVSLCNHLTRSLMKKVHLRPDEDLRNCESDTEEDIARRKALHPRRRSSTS

O=C(O)[C@@H]1[C@@H](Cn2nnc3ccccc3c2=O)CC[C@H]1C(=O)c1ccc(OCCC2CCOCC2)cc1 [BAY-694]
inactive: residual activity [1] 84% | residual activity [2] 100% | residual activity [3] 84% | residual activity [4] 100% | residual activity [5] 100% | residual activity [6] 100% | residual activity [7] 87% | residual activity [8] 76% | residual activity [9] 100% | residual activity [10] 100% | residual activity [11] 100% | residual activity [12] 100% | residual activity [13] 100% | residual activity [14] 93% | residual activity [15] 79% | residual activity [16] 100% | residual activity [17] 93% | residual activity [18] 100% | residual activity [19] 100% | residual activity [20] 100% | residual activity [21] 72% | residual activity [22] 100% | residual activity [23] 100% | residual activity [24] 90% | residual activity [25] 100% | residual activity [26] 95% | residual activity [27] 86% | residual activity [28] 92% | residual activity [29] 85% | residual activity [30] 100% | residual activity [31] 100% | residual activity [32] 100% | residual activity [33] 76% | residual activity [34] 100% | residual activity [35] 100% | inhibition [36] 18.4% | inhibition [37] 26.9% | inhibition [38] -2.32% | inhibition [39] 39.3%

O=C(O)[C@H]1[C@H](Cn2nnc3ccccc3c2=O)CC[C@@H]1C(=O)c1ccc(OCCC2CCOCC2)cc1 [BAY-7598]
inactive: residual activity [1] 75% | residual activity [2] 100% | residual activity [3] 71% | residual activity [4] 100% | residual activity [5] 100% | residual activity [6] 100% | residual activity [7] 76% | residual activity [8] 64% | residual activity [9] 100% | residual activity [10] 89% | residual activity [11] 100% | residual activity [12] 87% | residual activity [13] 97% | residual activity [14] 74% | residual activity [15] 88% | residual activity [16] 65% | residual activity [17] 78% | residual activity [18] 100% | residual activity [19] 100% | residual activity [20] 61% | residual activity [21] 93% | residual activity [22] 81% | residual activity [23] 91% | residual activity [24] 84% | residual activity [25] 100% | residual activity [26] 99% | residual activity [27] 97% | residual activity [28] 100% | residual activity [29] 80% | residual activity [30] 88% | residual activity [31] 79% | residual activity [32] 100% | residual activity [33] 100% | residual activity [34] 96% | residual activity [35] 100% | inhibition [36] 16.2% | inhibition [37] 16.6% | inhibition [38] 1.41% | inhibition [39] 28.5%

Reference: ChEMBL document CHEMBL4507264, “Data for DCP probe BAY-7598” (2021)
